The source of these data is ChEMBL document CHEMBL1132020, “Highly potent inhibitors of the Grb2-SH2 domain” (Bioorg Med Chem Lett, 1999).

Each structure is given as a SMILES string.

This experiment deals with Growth factor receptor-bound protein 2 (Homo sapiens, UniProt P62993). Kind of experiment: Inhibition of Grb-SH2 domain binding to phosphorylated carboxy-terminal intracellular domain of epidermal growth factor receptor. The class given is cell-based.
Sequence of Growth factor receptor-bound protein 2 (P62993 whole entry, the tested form may be a part): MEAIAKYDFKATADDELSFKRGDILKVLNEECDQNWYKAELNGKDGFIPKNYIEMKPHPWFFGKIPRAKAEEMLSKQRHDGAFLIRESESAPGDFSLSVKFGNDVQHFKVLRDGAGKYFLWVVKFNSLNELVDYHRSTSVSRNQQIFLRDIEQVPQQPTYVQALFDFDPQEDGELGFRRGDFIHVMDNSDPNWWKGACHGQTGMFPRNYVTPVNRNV
Take `CC(=O)N[C@@H](Cc1ccc(CP(=O)(O)O)cc1)C(=O)NC1(C(=O)N[C@@H](CC(N)=O)C(=O)NCCCn2ccc3cc(Cl)ccc32)CCCCC1`: the IC50 was determined as 59 nM. That is a double-digit nanomolar value.

Take `CC(=O)N[C@@H](Cc1ccc(CP(=O)(O)O)cc1)C(=O)NC1(C(=O)N[C@@H](CC(N)=O)C(=O)NCCCn2ccc3ccccc32)CCCCC1`: the IC50 came to 1.2 nM.

Take `COc1ccc2c(CCCNC(=O)[C@H](CC(N)=O)NC(=O)C3(NC(=O)[C@H](Cc4ccc(CP(=O)(O)O)cc4)NC(C)=O)CCCCC3)c[nH]c2c1`: the IC50 was determined as 14 nM.

With `CC(=O)N[C@@H](Cc1ccc(CP(=O)(O)O)cc1)C(=O)NC1(C(=O)N[C@@H](CC(N)=O)C(=O)NCCCc2c[nH]c3ccccc23)CCCCC1`, the IC50 amounted to 155 nM.

`CC(=O)N[C@@H](Cc1ccc(CP(=O)(O)O)cc1)C(=O)NC1(C(=O)N[C@@H](CC(N)=O)C(=O)NCCCn2ccc3cc(C)ccc32)CCCCC1` had an IC50 of 0.4 nM.

For the compound `CC(=O)N[C@@H](Cc1ccc(CP(=O)(O)O)cc1)C(=O)NC1(C(=O)N[C@@H](CC(N)=O)C(=O)NCCCn2cc(C)c3ccccc32)CCCCC1`, the IC50 stood at 81 nM.

The compound `CC(=O)N[C@@H](Cc1ccc(CP(=O)(O)O)cc1)C(=O)NC1(C(=O)N[C@@H](CC(N)=O)C(=O)NCCCn2c(C)cc3ccccc32)CCCCC1` registered an IC50 of 14.7 nM.

Turning to `CC(=O)N[C@@H](Cc1ccc(CP(=O)(O)O)cc1)C(=O)NC1(C(=O)N[C@@H](CC(N)=O)C(=O)NCCCn2ccc3cc(N(C)C)ccc32)CCCCC1`, the IC50 came to 3.4 nM.

Regarding `COc1ccc2c(ccn2CCCNC(=O)[C@H](CC(N)=O)NC(=O)C2(NC(=O)[C@H](Cc3ccc(CP(=O)(O)O)cc3)NC(C)=O)CCCCC2)c1`, the IC50 stood at 0.9 nM.

Consider `CC(=O)N[C@@H](Cc1ccc(CP(=O)(O)O)cc1)C(=O)NC1(C(=O)N[C@@H](CC(N)=O)C(=O)NCCCc2cn(C)c3ccccc23)CCCCC1`, for which the IC50 is 9.2 nM.

`CC(=O)N[C@@H](Cc1ccc(CP(=O)(O)O)cc1)C(=O)NC1(C(=O)N[C@@H](CC(N)=O)C(=O)NCCCn2ccc3cc(O)ccc32)CCCCC1` yielded an IC50 of 0.3 nM.

In general, IC50 refers to the concentration needed to halve the response being measured. A higher IC50 goes with a need for much substance.
